What was measured:
[1] = test system: patients with postherpetic neuralgia; settings: cited from earlier work

In the case of `Clc1cccc(Cl)c1NC1=NCCN1` [clonidine, N-(2,6-dichlorophenyl)-4,5-dihydro-1H-imidazol-2-amine], the side effects ([1]; single oral 0.2 mg, at the time of peak clonidine levels) is listed as “troublesome levels of sedation and dizziness”, the pain relief ([1]; single oral doses of 0.2 mg, 40 patients) is listed as “greater than that produced by doses of placebo or 120 mg codeine” and the side effects (eight volunteers, 3 mg or 6 mg per day for 14 consecutive days) is listed as “no side effects were observed”. For the same compound, the mean plasma concentrations (topical daily doses of 3 mg and 6 mg clonidine) was “not more than 0.2 nanograms/ml”.
